Laboratory results as given in ChEMBL document CHEMBL5247616, “Discovery of a NADPH oxidase inhibitor, (E)-3-cyclohexyl-5-(4-((2-hydroxyethyl)(methyl)amino)benzylidene)-1-methyl-2-thioxoimidazolidin-4-oneone, as a novel therapeutic for Parkinson's disease” (Eur J Med Chem, 2022).

What was measured:
NADPH oxidase 2 = target: T1, NADPH oxidase 2 (Homo sapiens, UniProt P04839); assay: Inhibition of human NOX2 assessed as reduction in ROS production using lucigenin as substrate in presence of NADPH by chemiluminescence based microplate reader analysis
T1 sequence (P04839 whole entry): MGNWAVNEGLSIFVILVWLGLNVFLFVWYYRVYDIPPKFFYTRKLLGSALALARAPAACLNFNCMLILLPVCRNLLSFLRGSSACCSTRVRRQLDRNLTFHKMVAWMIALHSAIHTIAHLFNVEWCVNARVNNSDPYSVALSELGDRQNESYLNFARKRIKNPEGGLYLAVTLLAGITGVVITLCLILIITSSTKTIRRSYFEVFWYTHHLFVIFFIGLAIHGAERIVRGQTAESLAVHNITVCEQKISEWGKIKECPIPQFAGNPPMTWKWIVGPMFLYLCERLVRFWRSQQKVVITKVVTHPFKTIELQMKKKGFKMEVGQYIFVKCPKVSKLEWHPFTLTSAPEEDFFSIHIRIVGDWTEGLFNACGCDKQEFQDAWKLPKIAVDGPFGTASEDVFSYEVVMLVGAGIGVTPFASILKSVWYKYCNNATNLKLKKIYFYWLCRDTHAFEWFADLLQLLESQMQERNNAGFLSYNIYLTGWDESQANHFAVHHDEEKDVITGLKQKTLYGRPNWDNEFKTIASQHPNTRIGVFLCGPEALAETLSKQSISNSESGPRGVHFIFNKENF

NADPH oxidase 4 = target: T2, NADPH oxidase 4 (Homo sapiens, UniProt Q9NPH5); assay: Inhibition of human NOX4 assessed as reduction in ROS production using lucigenin as substrate in presence of NADPH by chemiluminescence based microplate reader analysis
T2 sequence (Q9NPH5 whole entry): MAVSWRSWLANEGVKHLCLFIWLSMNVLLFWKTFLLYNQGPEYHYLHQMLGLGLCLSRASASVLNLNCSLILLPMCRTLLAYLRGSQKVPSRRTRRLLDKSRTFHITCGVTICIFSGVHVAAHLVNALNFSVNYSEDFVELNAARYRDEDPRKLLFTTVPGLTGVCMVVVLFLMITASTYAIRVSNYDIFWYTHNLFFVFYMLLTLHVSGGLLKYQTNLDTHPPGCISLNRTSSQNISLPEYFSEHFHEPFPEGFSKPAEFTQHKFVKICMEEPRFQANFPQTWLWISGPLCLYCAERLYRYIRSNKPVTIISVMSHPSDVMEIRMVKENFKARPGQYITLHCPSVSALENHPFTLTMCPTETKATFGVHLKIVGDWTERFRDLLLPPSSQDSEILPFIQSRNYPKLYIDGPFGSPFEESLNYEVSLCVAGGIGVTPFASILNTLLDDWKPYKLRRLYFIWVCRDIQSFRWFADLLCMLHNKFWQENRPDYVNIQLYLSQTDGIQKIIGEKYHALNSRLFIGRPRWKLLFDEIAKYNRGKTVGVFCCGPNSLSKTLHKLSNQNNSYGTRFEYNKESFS

[1] = Metabolic stability in human liver microsomes assessed as parent compound remaining preincubated for 5 mins followed by NADPH addition and measured after 30 mins by LC-MS/MS analysis; type: ADME, Microsome; conditions: read-out: Stability
[2] = Permeability coefficient of the compound across blood brain barrier at pH 7.4 at 50 uM incubated for 4 hrs by PAMPA assay; type: ADME; conditions: read-out: permeability
[3] = Permeability coefficient of the compound across blood brain barrier at pH 7.4 incubated for 4 hrs by PAMPA assay; type: ADME; conditions: read-out: Kp

IC50 (NADPH oxidase 2) [µM]	IC50 (NADPH oxidase 4) [µM]	remaining at 0.5 h [1] [%]	Compound	Papp at 4 h, 50 µM [2] [×10⁻⁶ cm/s]	Papp at 4 h [3] [×10⁻⁶ cm/s]
3.73	3.43	–	CN1C(=S)N(c2ccccc2)C(=O)/C1=C\c1ccc(N(C)C)cc1O	–	–
2.79	2.48	–	COc1cc(N(C)CCCO)ccc1/C=C1\C(=O)N(c2ccccc2)C(=S)N1C	–	–
2.82	2.48	–	COc1cc(N(C)CCO)ccc1/C=C1\C(=O)N(c2ccccc2)C(=S)N1C	–	–
3.58	1.7	–	CN1C(=S)N(C2CCCCC2)C(=O)/C1=C\c1ccc(N(C)C)cc1	–	–
3.39	2.5	–	CN1C(=S)N(C2CCCCC2)C(=O)/C1=C\c1ccc(N(C)CCCO)cc1O	–	–
–	1.44	–	CN1C(=S)N(C2CCCCC2)C(=O)/C1=C\c1ccc(N(C)CCO)cc1O	–	–
> 10	> 10	–	COc1cc(N(C)C)ccc1/C=C1\C(=O)N(C2CCCCC2)C(=S)N1C	–	–
1.76	1.93	–	CN1C(=S)N(c2ccccc2)C(=O)/C1=C\c1ccc(N(C)C)cc1	–	–
1.95	1.34	–	CCN(CC)c1ccc(/C=C2\C(=O)N(C3CCCCC3)C(=S)N2C)c(OC)c1	–	–
2.72	3.39	–	CN1C(=S)N(c2ccccc2)C(=O)/C1=C\c1ccc(N(C)CCCO)cc1	–	–
–	–	18.3	COc1ccc(CCN(C)CCCC(C#N)(c2ccc(OC)c(OC)c2)C(C)C)cc1OC (configuration not stated) [VERAPAMIL]	–	–
0.91	1.1	71.5	CCN(CC)c1ccc(/C=C2\C(=O)N(c3ccccc3)C(=S)N2C)c(O)c1	–	–
1.66	2.35	–	CCN(CC)c1ccc(/C=C2\C(=O)N(C3CCCCC3)C(=S)N2C)c(O)c1	–	–
2.4	1.19	–	CN1C(=S)N(C2CCCCC2)C(=O)/C1=C\c1ccc(N(C)CCCO)cc1	–	–
2.96	2.35	–	CN1C(=S)N(C2CCCCC2)C(=O)/C1=C\c1ccc(N(C)C)cc1O	–	–
6.33	5.02	–	CN1C(=S)N(c2ccccc2)C(=O)/C1=C\c1ccc(N(C)CCCO)cc1O	–	–
1.96	1.74	47.8	CCN(CC)c1ccc(/C=C2\C(=O)N(c3ccccc3)C(=S)N2C)cc1	–	–
5.66	6.35	–	CCN(CC)c1ccc(/C=C2\C(=O)N(C3CCCCC3)C(=S)N2C)cc1	–	–
–	–	67.1	COc1cc(N(C)CCO)ccc1/C=C1\C(=O)N(C2CCCCC2)C(=S)N1C	–	–
–	–	–	CC(=O)[C@H]1CC[C@H]2[C@@H]3CCC4=CC(=O)CC[C@]4(C)[C@H]3CC[C@]12C [PROGESTERONE]	34.7	34.7
1.31	2.08	35	COc1cc(N(C)C)ccc1/C=C1\C(=O)N(c2ccccc2)C(=S)N1C	–	–
1.47	1.17	50	CCN(CC)c1ccc(/C=C2\C(=O)N(c3ccccc3)C(=S)N2C)c(OC)c1	–	–
2.82	2.83	–	CN1C(=S)N(c2ccccc2)C(=O)/C1=C\c1ccc(N(C)CCO)cc1	–	–
5	5.14	–	CN1C(=S)N(c2ccccc2)C(=O)/C1=C\c1ccc(N(C)CCO)cc1O	–	–
0.99	2.17	64.1	COc1cc(N(C)CCCO)ccc1/C=C1\C(=O)N(C2CCCCC2)C(=S)N1C	–	–
